Measurements published in PubChem BioAssay (NCI).
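In this assay, cells in 96-well plates receive the compound at five concentrations for 48 hours. Endpoints are linearly interpolated between the surrounding concentrations. The concentration for full growth arrest is given as TGI.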

What was measured:
Experiment in all cases: NCI anticancer screen, dose series, 48 h
[1] = system: PC-3 prostate
[2] = system: IGROV1 ovarian
[3] = system: 786-0 renal
[4] = system: OVCAR-8 ovarian
[5] = system: NCI-H23 lung
[6] = system: RXF 393 renal
[7] = system: A498 renal
[8] = system: BT-549 breast
[9] = system: KM12 colon
[10] = system: OVCAR-4 ovarian
[11] = system: HOP-62 NSCLC
[12] = system: RPMI-8226 leukemia
[13] = system: HL-60(TB) leukemia
[14] = system: MDA-MB-435
[15] = system: HT29 colon
[16] = system: HS 578T breast
[17] = system: CCRF-CEM leukemia
[18] = system: EKVX NSCLC
[19] = system: NCI-H522 lung
[20] = system: MCF7 breast

SMILES	TGI [1]	TGI [2]	TGI [3]	TGI [4]	TGI [5]	TGI [6]	TGI [7]	TGI [8]	TGI [9]	TGI [10]	TGI [11]	TGI [12]	TGI [13]	TGI [14]	TGI [15]	TGI [16]	TGI [17]	TGI [18]	TGI [19]	TGI [20]
CCCCCCCCCCCCN1[C@H]2CCC[C@H]2C(O)[C@@H]2CCC[C@@H]21 (stereo partly drawn)	> 100 µM	> 100 µM	> 100 µM	> 100 µM	> 100 µM	> 100 µM	> 100 µM	> 100 µM	> 100 µM	> 100 µM	> 100 µM	> 100 µM	> 100 µM	> 100 µM	> 100 µM	> 100 µM	> 100 µM	–	–	–
O=C1c2ccccc2C(=O)N1CC1S(=O)(=O)OCCOS1(=O)=O	> 100 µM	> 100 µM	> 100 µM	> 100 µM	> 100 µM	> 100 µM	> 100 µM	–	–	> 100 µM	> 100 µM	> 100 µM	> 100 µM	> 100 µM	> 100 µM	> 100 µM	> 100 µM	> 100 µM	> 100 µM	> 100 µM
CC12CCC(C(Nc3cc(C(F)(F)F)cc(C(F)(F)F)c3)C1=O)C2(C)C (stereo not drawn)	> 100 µM	> 100 µM	> 100 µM	> 100 µM	> 100 µM	–	> 100 µM	> 100 µM	> 100 µM	> 100 µM	> 100 µM	> 100 µM	–	> 100 µM	> 100 µM	–	–	> 100 µM	–	> 100 µM
CC1=NN(c2cccc(Cl)c2)C2(SCC(=O)N2c2nc3ccccc3s2)/C1=C\c1ccc(N(C)C)cc1 (stereo not drawn)	> 100 µM	> 100 µM	> 100 µM	> 100 µM	> 100 µM	44.8 µM	87.9 µM	–	> 100 µM	> 100 µM	48.6 µM	> 100 µM	> 100 µM	> 100 µM	> 100 µM	75.7 µM	> 100 µM	> 100 µM	> 100 µM	> 100 µM
CO[C@@H]1C[C@H]2[C@@H]3CC[C@H]([C@@H](C)CO)[C@@]3(C)CC[C@@H]2[C@@]2(C)CC[C@H]3C[C@]312	57.3 µM	> 100 µM	> 100 µM	> 100 µM	> 100 µM	45.6 µM	> 100 µM	–	36.6 µM	> 100 µM	> 100 µM	89.6 µM	76.3 µM	> 100 µM	36.2 µM	82.3 µM	> 100 µM	> 100 µM	71.8 µM	31.8 µM
CCN1C(=O)C(=C/C=C/C=C2/N(C)c3ccccc3C2(C)C)C(=O)N(CC)C1=S	–	> 100 µM	> 100 µM	> 100 µM	> 100 µM	> 100 µM	> 100 µM	70.9 µM	> 100 µM	> 100 µM	> 100 µM	> 100 µM	> 100 µM	> 100 µM	> 100 µM	> 100 µM	> 100 µM	> 100 µM	> 100 µM	> 100 µM
COc1ccc(/C=C2\CN(C)C/C(=C\c3ccc(OC)cc3)C2=O)cc1	> 100 µM	> 100 µM	> 100 µM	–	> 100 µM	> 100 µM	> 100 µM	–	> 100 µM	> 100 µM	> 100 µM	> 100 µM	> 100 µM	> 100 µM	> 100 µM	> 100 µM	> 100 µM	> 100 µM	> 100 µM	–
Nc1ccc2c(=O)cc(-c3cccs3)[nH]c2n1	> 28.3 µM	> 100 µM	> 100 µM	> 60.5 µM	> 26.3 µM	> 100 µM	> 100 µM	> 100 µM	> 100 µM	> 100 µM	> 100 µM	–	0.671 µM	–	> 72 µM	> 24.9 µM	> 44.9 µM	> 100 µM	–	> 100 µM
Nn1c(CCCCCCCCc2nnc(COc3ccc4ccccc4c3O)n2N)nnc1COc1ccc2ccccc2c1O	> 100 µM	38.3 µM	> 100 µM	–	41.6 µM	80.3 µM	> 100 µM	69.5 µM	49.4 µM	> 100 µM	–	99.2 µM	–	> 100 µM	> 100 µM	–	–	> 100 µM	42 µM	> 100 µM
O=S(=O)(c1ccccc1)C(c1ccc2ccccc2n1)S(=O)(=O)c1ccccc1	> 100 µM	> 100 µM	> 100 µM	> 100 µM	> 100 µM	> 100 µM	> 100 µM	> 100 µM	> 100 µM	> 100 µM	> 100 µM	> 100 µM	> 100 µM	–	> 100 µM	> 100 µM	–	> 100 µM	> 100 µM	> 100 µM
CC1C/C(=C\c2ccc(OC(=O)C(C)(C)C)cc2)C(=O)/C(=C/c2ccc(OC(=O)C(C)(C)C)cc2)C1 (stereo not drawn)	> 100 µM	63.3 µM	> 100 µM	86.6 µM	> 100 µM	70.9 µM	> 100 µM	–	> 100 µM	> 100 µM	> 100 µM	–	62.3 µM	> 100 µM	> 100 µM	> 100 µM	6.25 µM	> 100 µM	15.6 µM	> 100 µM
O=S(CC1(O)CCCCC1)c1ccccc1 (stereo not drawn)	> 100 µM	> 100 µM	> 100 µM	> 100 µM	> 100 µM	> 100 µM	–	> 100 µM	> 100 µM	> 100 µM	> 100 µM	2.32 µM	> 100 µM	–	> 100 µM	> 100 µM	> 100 µM	> 100 µM	> 100 µM	> 100 µM
Nc1c2ccccc2nc2ccc3c(=O)cc(-c4ccccc4)oc3c12	2.7 µM	–	0.348 µM	1.89 µM	3.52 µM	2.91 µM	–	59.7 µM	2.16 µM	1.1 µM	–	0.697 µM	3.07 µM	2.39 µM	1.86 µM	–	–	2.8 µM	–	2.05 µM
COc1cccc2c1CCc1cc3c(N)nc(N)nc3nc1-2	18.3 µM	17.2 µM	6.13 µM	21.7 µM	18.2 µM	26.4 µM	32.9 µM	52.1 µM	37.5 µM	32.5 µM	20.1 µM	> 100 µM	–	27.4 µM	17.3 µM	–	7.02 µM	15.3 µM	10.8 µM	47.9 µM
Cn1c(=O)n2n(c1=O)C(S(=O)(=O)c1ccccc1)C2 (stereo not drawn)	> 100 µM	> 100 µM	> 100 µM	> 100 µM	> 100 µM	> 100 µM	–	> 100 µM	> 100 µM	> 100 µM	> 100 µM	> 100 µM	–	> 100 µM	> 100 µM	> 100 µM	> 100 µM	> 100 µM	> 100 µM	> 100 µM
CC(C)(Oc1ccccc1)C(=O)Sc1c(-c2ccccc2)c(=O)n(-c2ccccc2)c(=S)n1-c1ccccc1	–	47.6 µM	> 100 µM	44.1 µM	> 100 µM	63.2 µM	> 100 µM	–	64.7 µM	> 100 µM	52.8 µM	–	64.7 µM	52.4 µM	> 100 µM	85.4 µM	> 100 µM	> 100 µM	64.2 µM	> 100 µM
O=C1CCCCCCCCCCC1CCCCCBr (stereo not drawn)	> 100 µM	56.2 µM	86 µM	> 100 µM	74.8 µM	43.8 µM	28.2 µM	–	53.7 µM	67.2 µM	> 100 µM	–	–	97.7 µM	95.6 µM	> 100 µM	35 µM	> 100 µM	44.4 µM	63.3 µM
C1CCCCC2(CCCCCCCCC3(CCC1)OCCO3)OCCO2	> 100 µM	> 100 µM	> 100 µM	> 100 µM	> 100 µM	> 100 µM	> 100 µM	–	> 100 µM	> 100 µM	> 100 µM	–	> 100 µM	> 100 µM	> 100 µM	> 100 µM	–	> 100 µM	> 100 µM	> 100 µM
Clc1nssc1=Nc1nonc1-c1ccccc1	> 100 µM	82 µM	> 100 µM	> 100 µM	76.6 µM	59.6 µM	> 100 µM	89.8 µM	96 µM	> 100 µM	> 100 µM	63.3 µM	34.9 µM	> 100 µM	52.2 µM	–	90.8 µM	> 100 µM	43.4 µM	> 100 µM
CCOC(=O)CCC(NC(=O)c1ccc(Oc2nc3ccccc3nc2-c2ccccc2)cc1)C(=O)OCC (stereo not drawn)	> 100 µM	> 100 µM	> 28.7 µM	16 µM	> 61.3 µM	> 76.2 µM	> 100 µM	–	> 100 µM	65.6 µM	45.1 µM	> 100 µM	> 100 µM	> 100 µM	10.7 µM	27.3 µM	> 100 µM	> 100 µM	40.2 µM	> 100 µM
O=C(CC(C(=O)c1cccs1)c1cccs1)c1ccsc1 (stereo not drawn)	> 100 µM	> 100 µM	> 100 µM	> 100 µM	> 100 µM	–	> 100 µM	–	> 100 µM	> 100 µM	> 100 µM	> 100 µM	95 µM	43.1 µM	> 100 µM	> 100 µM	> 100 µM	> 100 µM	–	> 100 µM
Nc1nc(N)c2cc(-c3ccccc3)cnc2n1	20.6 µM	26.8 µM	21.5 µM	57.4 µM	25.9 µM	22.5 µM	28.5 µM	30.2 µM	30.1 µM	35.2 µM	40.9 µM	48.9 µM	28.4 µM	–	21 µM	46.2 µM	98.3 µM	45.1 µM	44.9 µM	44.1 µM
COc1ccc(P2(=S)Oc3ccccc3-c3ccccc3O2)cc1	–	> 100 µM	> 100 µM	> 40.6 µM	> 100 µM	–	4.01 µM	> 100 µM	> 100 µM	> 100 µM	> 100 µM	–	–	–	–	> 100 µM	> 100 µM	> 100 µM	–	> 40.4 µM
CC(=O)O/C=C1/C[C@H]2[C@@H]3CCC4CC(C(C)=O)CC[C@]4(C)[C@H]3CC[C@]2(C)C1=O (stereo partly drawn)	> 100 µM	> 100 µM	> 100 µM	–	> 100 µM	> 100 µM	> 100 µM	> 100 µM	93.3 µM	> 100 µM	> 100 µM	–	37.2 µM	> 100 µM	> 100 µM	–	> 100 µM	> 100 µM	> 100 µM	> 100 µM
Cc1ccc(N2C(=O)C=C(C3=C(O)C(=O)N(c4ccc(C)cc4)C3=O)C2=O)cc1	> 100 µM	> 100 µM	> 100 µM	> 100 µM	> 100 µM	–	> 100 µM	> 100 µM	–	> 100 µM	> 100 µM	> 100 µM	> 100 µM	> 100 µM	> 100 µM	–	> 100 µM	> 100 µM	–	> 100 µM
CC(NO)/C(=N/O)c1ccco1 (stereo not drawn)	> 10 µM	–	> 10 µM	> 10 µM	> 10 µM	> 10 µM	–	> 10 µM	> 10 µM	> 10 µM	> 10 µM	> 10 µM	> 10 µM	> 10 µM	> 10 µM	–	> 10 µM	> 10 µM	> 10 µM	> 10 µM
COc1cccc(C2c3cc4c(cc3OC(N3CCOCC3)C2C)OCO4)c1OC (stereo not drawn)	40.6 µM	31.2 µM	52.7 µM	> 100 µM	> 100 µM	–	–	–	36.2 µM	–	31.6 µM	24.1 µM	–	33.8 µM	15.8 µM	63.5 µM	28.8 µM	> 100 µM	34.3 µM	> 100 µM
